Values quoted from earlier work, collected in US20090004290A1, “RED YEAST RICE COMPOUND FOR CANCER CHEMOPREVENTION” (priority 2007, published 2009).

Key:
lung cancer [1] = settings: secondary endpoint; follow up of over 1300 participants; selenium supplementation
lung cancer [2] = settings: interim analysis of over 3200 participants
[3] = test system: total, breast, colorectal, or other site-specific cancers; settings: 100 mg alternate day, average 10 years of treatment, women
lung cancer [4] = test system: lung cancer

[Se] [selenium, Selenium]
hazard ratio (lung cancer) (lung cancer [1]): 0.56
trend of lung cancer with supplementation / dietary intake (lung cancer [2]): significant inverse trend

[Cu] [copper, Copper]
trend of lung cancer with supplementation / dietary intake (lung cancer [2]): protective trend

[Zn] [zinc, Zinc]
trend of lung cancer with supplementation / dietary intake (lung cancer [2]): significant chemoprotective trend

CC(=O)Oc1ccccc1C(=O)O [aspirin, acetylsalicylic acid]
risk of total, breast, colorectal, or other site-specific cancers [3]: does not lower risk

Cc1c(C)c2c(c(C)c1O)CC[C@@](C)(CCC[C@H](C)CCC[C@H](C)CCCC(C)C)O2 [Alpha-tocopherol]
mortality due to hemorrhagic stroke (lung cancer [4]; participants that received Alpha-tocopherol): higher mortality
decrease incidence of lung cancer (lung cancer [4]; participants with highest blood levels vs quartile with lowest levels): 19%
